Measured values reported in patent US20020045606A1, “Esters of vitamin D3 and uses thereof” (priority 1999, published 2002).

Experiments:
UMR 106 cells [1] = test: Metabolism of 1α,25(OH)2-16-ene-D3 analogs into less polar fatty acid ester metabolites in bone cells; type: in vitro ADME, rat; details: 10 μM analog incubated 24 h in UMR 106 cells; HPLC (FIG. 1)
Procedure: As described herein, various analogs of 1α,25(OH)2-D3, such as 1α,25(OH)2-16-ene-D3 analogs are metabolized into less polar metabolites in the rat osteosarcoma cell line UMR 106. UMR 106 cells were cultured in an humidified atmosphere at 37° C. in 95% air and 5% CO2. MacCoy's culture medium, containing 10% fetal calf serum (FCS), antibiotics (100 IU/mL penicillin and 100 μg/mL streptomycin) and […], was used. Cells became confluent ten days after seeding, and were then incubated with analog. Samples (structures shown in Table 2) of 1α,25(OH)2-16-ene-D3, 1α,25(OH)2-16-ene-3-epi-D3, 1α,25(OH)2-16-ene-20-epi-D3, 1α,25(OH)2-16-ene-20-epi-3-epi-D3, and 1α,25(OH)2-16-ene-23-yne-D3 were dissolved in ethanol to a final concentration of 10 μM and incubated in 50 mL for 24 h. Each analog was incubated in three culture bottles. Incubation was stopped by adding 10 mL methanol to each culture bottle. Culture bottles were stored at −20° C.
Lipid extraction was initiated by first adding two volumes of methanol to each culture bottle from Example I. The protein precipitate was separated from the supernatant by centrifugation at 3000 rpm at 4° C. for 15 min. The supernatant was mixed with four volumes of dichloromethane in a separatory funnel. The lower organic phase was collected and dried under nitrogen gas at 50° C. After reconstitution in 10% isopropanol/hexane, the lipid extract was analyzed by high-performance liquid chromatography (HPLC).
HPLC was performed with a Waters System Controller (Model 600E) equipped with a photodiode array detector (Model PDA 990) to monitor UV absorption at 265 nm. A Zorbax SIL 9.4×250 mm column (DuPont, Wilmington, Del.) was used for all straight phase systems. The corresponding analog was added to each lipid extract and the solutions were then subjected to a straight phase HPLC system using 10% isopropanol/hexane at a flow rate of 2 mL/min. (HPLC system I). Fractions were collected from 0 min. to 12 min. These fractions were further subjected to a straight phase HPLC system using 2% isopropanol/hexane at a flow rate of 2 mL/min. (HPLC system II).

UMR 106 cells [2] = test: Distribution of esters and substrates between cells and media, UMR 106; type: in vitro ADME, rat; details: lipid extraction from media and cells separately, HPLC system I
Procedure: Peaks H2-A and H3-A were obtained and purified as described in Example II. In addition, UMR 106 cells were incubated with 1α,25(OH)2-16-ene-20-epi-D3 and 1α,25(OH)2-16-ene-20-epi-3-epi-D3, as described in Example I.
The lipid extraction was carried out from media and cells separately and together, as described in Example II. HPLC was performed with a Waters System Controller (Model 600E) equipped with a photodiode array detector (Model PDA 990) to monitor UV absorption at 265 nm. A Zorbax SIL 9.4×250 mm column (DuPont, Wilmington, Del.) was used for all straight phase systems. Each lipid extract was analyzed using HPLC system I.

Compound | amount of less polar fatty acid ester metabolites produced (UMR 106 cells [1]) | distribution between cells and media (UMR 106 cells [2])
C=C1/C(=C\C=C2/CCC[C@]3(C)C([C@H](C)CCCC(C)(C)O)=CCC23)C[C@@H](O)C[C@@H]1O (stereo partly drawn) [1α,25(OH)2-16-ene-D3] | production of the less polar fatty acid ester metabolites | 
C=C1/C(=C\C=C2/CCC[C@]3(C)C([C@H](C)CCCC(C)(C)O)=CCC23)C[C@H](O)C[C@@H]1O (stereo partly drawn) [1α,25(OH)2-16-ene-3-epi-D3] | slightly greater amounts of one of the less polar metabolites | 
C=C1/C(=C\C=C2/CCC[C@]3(C)C([C@@H](C)CC#CC(C)(C)O)=CCC23)C[C@@H](O)C[C@@H]1O (stereo partly drawn) [1α,25(OH)2-16-ene-23-yne-D3] | reduced | 
C=C1/C(=C\C=C2/CCC[C@]3(C)C([C@@H](C)CCCC(C)(C)O)=CCC23)C[C@H](O)C[C@@H]1O (stereo partly drawn) [1α,25(OH)2-16-ene-20-epi-3-epi-D3] | enhanced even further | distributed primarily in the media
C=C1/C(=C\C=C2/CCC[C@]3(C)C([C@@H](C)CCCC(C)(C)O)=CCC23)C[C@@H](O)C[C@@H]1O (stereo partly drawn) [1α,25(OH)2-16-ene-20-epi-D3] | a greater increase in the amount of the less polar fatty acid ester metabolites | distributed primarily in the media
